Experimental findings from patent US11220491B2, “Photoprotective compositions containing Malassezia-derived compounds and/or chemical analogs thereof” (Versicolor Technologies, LLC, priority 2018, dated 2022) are described below.

Series [1] concerns the target T1, arylhydrocarbon receptor (AhR) (Homo sapiens, UniProt P35869).
T1 sequence (P35869 11-848): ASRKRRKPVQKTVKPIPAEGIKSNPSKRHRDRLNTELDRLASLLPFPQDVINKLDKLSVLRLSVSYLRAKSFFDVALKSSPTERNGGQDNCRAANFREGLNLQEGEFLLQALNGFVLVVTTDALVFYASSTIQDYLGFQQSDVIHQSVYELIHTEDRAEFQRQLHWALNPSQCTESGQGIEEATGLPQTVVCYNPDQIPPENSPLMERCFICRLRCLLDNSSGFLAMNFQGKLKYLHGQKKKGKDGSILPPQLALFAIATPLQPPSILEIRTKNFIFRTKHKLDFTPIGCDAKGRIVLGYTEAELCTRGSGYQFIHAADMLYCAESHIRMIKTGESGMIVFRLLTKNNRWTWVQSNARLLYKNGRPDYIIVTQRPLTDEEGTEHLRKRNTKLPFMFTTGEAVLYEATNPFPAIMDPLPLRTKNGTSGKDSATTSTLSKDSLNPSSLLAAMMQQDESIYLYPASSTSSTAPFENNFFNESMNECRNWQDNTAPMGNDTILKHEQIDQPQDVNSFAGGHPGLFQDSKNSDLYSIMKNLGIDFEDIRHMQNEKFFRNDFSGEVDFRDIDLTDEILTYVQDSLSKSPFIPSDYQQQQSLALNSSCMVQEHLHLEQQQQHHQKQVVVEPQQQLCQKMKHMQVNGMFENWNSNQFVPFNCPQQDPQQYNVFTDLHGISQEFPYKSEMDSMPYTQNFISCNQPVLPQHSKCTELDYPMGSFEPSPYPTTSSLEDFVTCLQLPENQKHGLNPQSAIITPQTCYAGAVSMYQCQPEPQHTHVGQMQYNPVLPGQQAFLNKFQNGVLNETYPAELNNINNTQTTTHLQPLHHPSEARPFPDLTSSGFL
Kind of series: HepG2-AhR-Luciferase assay. Particulars: EC50 (uM), 24 hours of treatment.
Description: HepG2-AhR-Luc cells were purchased from Pharmaron, One-Glo Luciferase assay system was purchased from Promega. DMEM was purchased from Hyclone, and penicillin/streptomycin was purchased from Solabio.
Culture media for stably transfected HepG2 cells was prepared by supplementing DMEM with high glucose and L-glutamine, as well as 10% FBS.
HepG2-AhR-Luc cells were cultured in T-75 flasks at 37° C., 5% CO2, and 95% relative humidity. Cells were allowed to reach 80-90% confluence before detachment and splitting.
Cultivated cells were rinsed with 5 mL PBS. PBS was aspirated away, 1.5 mL trypsin was added to the flask, and cells were incubated at 37° C. for approximately 5 minutes or until the cells detached and floated. Trypsin was inactivated by adding excess serum-containing media.
The cell suspension was transferred to a conical tube and centrifuged at 120 g for 10 minutes to pellet the cells. Cells were resuspended in seeding media at a proper density. 40 μL of cells were transferred to a 384-well culture plate (5×10^3 cells/well). Plates were placed in the incubator at 37° C. for 24 hours.
Afterward, stock solutions of test compounds and omeprazole positive control were prepared. Compound solutions were transferred into the assay plate using Echo550. The plate was then placed back into the incubator for compound treatment.
Later, after 24 hours of treatment, the plate was removed from the incubator and allowed to cool at ambient temperature. 30 μL One-Glo reagent equal to that of the culture medium was added in each well. Cells were allowed to lyse for at least 3 minutes, and then measured in a luminometer.
Dose responses were graphed using the non-linear regression analysis in XLfit and EC50 values were also calculated.

For the next series, the system named is MelanoDerm™ Skin Model. Kind of series: MelanoDerm Study 1, MTT tissue viability (Example 19). It counts as cell-based, human. The settings on record: 200 μM compared to 50 μM. The source says: Treatments were as follows: 7-days of treatment in alternate days (7TD); 7-days of treatment in alternate days followed by 7-days without treatment (recovery) (7TD+7NTD); and 14-days of treatment in alternate days (14TD). The study also evaluated the potential dermal irritation induced by each test article as measured by the conversion of MTT by MelanoDerm™ tissues after repeated exposures to the test articles, over the treatment periods specified in the protocol.
(Berridge et al., 1996). The toxicity of the test articles to the tissue, which is evidence for potential dermal irritation, was determined by measuring the relative survival—the MTT conversion relative to the negative control-treated tissues.
The test articles, CV-8686 and AB11644, were provided as stock solutions (˜100 mM each) in DMSO. The test articles were administered to the test system as a 50 μM and 200 μM dilution in sterile, EPI-100-LLMM. Test article DMSO (vehicle control) was administered to the test system as a 0.2% dilution in sterile, EPI-100-LLMM.
The test articles were each prepared using the procedure as follows: starting from the stock concentrations provided, 2 μl of each test article were first diluted with the appropriate volume of EPI-100-LLMM to a final concentration of 200 μM. […]

In series [2] the test system is WM115 cells. In words: Cell morphology after treatment (Example 6). The settings on record: 100 μM, 6 hours. It counts as cell-based.
In series [3] the test system is WM115 cells. Kind of series: CellTiter-Glo cell viability assay (Example 9). It is filed as cell-based. The settings on record: 100, 10, 1 μM; 6, 24, 48, 72 hours. On the procedure: (§1) CellTiter-Glo® 2.0 assay was purchased from Promega. Cell seeding, preparation of the compound source plate, and exposure of cells to test compounds were performed as described in Example 8.
(§2) CellTiter-Glo® reagents were thawed and equilibrated to room temperature before the experiment. 40 μL of CellTiter-Glo® reagent was then added to each well for detection (at 1:1 ratio to culture medium). The plates were then incubated at room temperature for 30 minutes and read using EnSpire (PerkinElmer) plate reader. The remaining activity was calculated according to the following formula: Remaining Activity (%)=100%×(Lumsample−Lumbkg)/(Lumvehicle−Lumbkg).

Series [4] deals with WM115 cells. Kind of series: Annexin V assay, additional evaluation (Example 8). It counts as cell-based. The settings on record: 100, 10, 1 μM; 6, 24, 48, 72 hours. Here is the method:
(§3) To further investigate the impact of test compounds on apoptosis, multiple readouts, covering different stages of apoptosis, were carried out on both MeWo and WM115 cells. Both cell types were treated with test compounds at 3 doses (100 μM, 10 μM, and 1 μM). Staurosporine was used as a positive control. […] The test compounds evaluated were CV-8684. CV-8685, and CV-8688.
(§4) Cell seeding was performed as discussed above with the following exceptions: the final cell density was 4,000 cells/well for 6-hour and 24-hour detections, whereas 2,000 cells/well were used for 48-hour and 72-hour detections. For each time point. 384-well clear bottom plates (Corning 3712) and solid white bottom plates (Corning 3570) were prepared. The plates were incubated as discussed above.
(§5) For preparation of the compound source plate, each test compound was dissolved in DMSO to 10 mM stock. Two additional concentrations were generations by 10-fold dilution to 1 mM and 0.1 mM. Staurosporine was used as positive control and 1% DMSO was employed as vehicle (negative) control. The compound source plate was spun at room temperature at 1,000 RPM for 1 minute and agitated using a plate shaker for 2 minutes.
(§6) 400 nL of test compound was transferred from the compound source plate to 384-well culture plates using Echo550 liquid handler. After 6, 24, 48, and 72 hours, the plates were removed from the incubator for detections.
(§7) Culture media was removed and cells were washed twice with PBS. 20 μL of pre-mixed annexin V-FITC working solution was added to each well. The cells were incubated at room temperature for 20 minutes. Plates were read using Acumen eX3 to count the number of FITC-positive cells. The relative activity was calculated according to the following formula: Relative Activity (%)=100%×(Countsample/Countvehicle).

In series [5] the test system is MeWo cells. In words: Annexin V assay, additional evaluation (Example 8). It counts as cell-based. The settings on record: 100, 10, 1 μM; 6, 24, 48, 72 hours. On the procedure: as §3, §4, §5, §6, §7
In series [6] the test system is MeWo cells. Kind of series: Cell morphology after treatment (Example 6). It is filed as cell-based. The settings on record: 100 μM, 6 hours.
For series [7], the system named is MeWo cells. Kind of series: Preliminary annexin V-FITC assay (Example 7). It counts as cell-based. The settings on record: 6-hour treatment. On the procedure:
MeWo (ATCC® HTB-65™) and WM115 (ATCC® CRL-1675) cells were purchased from ATCC (Manassas, Va.) and maintained in the following: for MeWo:DMEM supplemented with 10% FBS; for WM115: RPMI 1640 supplemented with 10% FBS (10% FBS, 1% stabilized antibiotic anti-mycotic solution).
During the first set of studies, both MeWo and WM115 cells were treated with test compounds at 10 doses starting from 100 μM with 3-fold dilution. Staurosporine was used as positive control. After 6-hour treatment, cell apoptosis was assessed using an annexin V assay. The test compounds evaluated were CV-8684, CV-8685, CV-8686, CV-8687, and CV-8688.
For cell seeding, cells were harvested and the cell number was determined using Countess® cell counter. Cells were then diluted with culture medium to the desired density. 40 μL of cell suspension per well was added to the required number of wells in a 384-well plate (Corning 3712—clear bottom plate). The final cell density was 6,000 cells/well. After plating, the plates were incubated at 37° C., and 5% CO2 overnight.
For preparation of compound source plate, each test compound was dissolved in DMSO to 10 mM stock. 3-fold serial dilution was performed using an EVO200™ liquid handler (TECAN) to generate ten concentrations of test compound. 0.1% DMSO was employed as vehicle (negative) control. The compound source plate was then spun at room temperature at 1,000 RPM for 1 minute and agitated using a plate shaker for 2 minutes.
For compound treatment, 40 nL of compound were transferred from the compound source plate to the 384-well culture plate using liquid handler Echo550 (LabCyte Inc.). After 6-hour incubation, the plates were removed from the incubator for detection.
For the preliminary annexin V assay, the plates were removed from the incubator and allowed to equilibrate at room temperature for 15 minutes. Culture media was then removed. 20 μL of pre-mixed annexin V-FITC and Hoechst33342 dye working solution were added to each well. The cells were then incubated at room temperature for 20 minutes. […] Afterward, the plate was read using an Acumen eX3 plate reader. The relative activity was calculated according to the following formula: Activity (%)=100%×(CountAnnexin V/CountTotal cell), and EC50 was calculated using GraphPad Prism (v. 5.01).

For series [8], the system named is WM115 cells. In words: Lactate dehydrogenase (LDH) release assay (Example 10). It counts as cell-based. Particulars: 100, 10, 1 μM; 6, 24, 48, 72 hours. Here is the method: (§8) The LDH assay quantitatively measures lactate dehydrogenase (“LDH”) released into the media from damaged cells as a biomarker for cytotoxicity and cytolysis.
(§9) CytoTox-ONE™ Homogenous Membrane Integrity Assay was purchased from Promega. Cell seeding, preparation of the compound source plate, and exposure of cells to test compounds were performed as described in Example 8.
(§10) Plates were then centrifuged at 1,000 RPM for 1 minute. 20 μL of cell culture medium was transferred into a new 384-well black solid plate. Then, 20 μL of CytoTOX-ONE™ was added into each well and incubated at room temperature for 10 minutes. Afterward, 10 μL of stop solution were added to each well, and the plates were agitated at 500 rpm for 1 minute. Plates were read using an excitation wavelength of 560 nm and an emission wavelength of 590 nm on EnSpire. The relative activity was calculated according to the following formula: Relative Activity (%)=100%×(Lumsample−Lumbkg)/(Lumvehicle−Lumbkg).

Series [9] deals with MeWo cells. The series is described as above. It is filed as cell-based. The settings on record: 100, 10, 1 μM; 6, 24, 48, 72 hours. Here is the method:
as §8, §9, §10

In series [10] the test system is MeWo cells. Kind of series: CellTiter-Glo cell viability assay (Example 9). Particulars: 100, 10, 1 μM; 6, 24, 48, 72 hours. It is filed as cell-based. On the procedure:
as §1, §2

Turning to `c1ccc2c(C(c3c[nH]c4ccccc34)C3CC3)c[nH]c2c1` [AB11644], in series [1] (Table 2), the EC50 was 14.9 µM. In addition, the “viability of the tissues, dose response” value in the series with MelanoDerm™ Skin Model is listed as “slightly lower viability”.

`Cc1ccc2c(Cc3[nH]c4ccccc4c3C=O)c[nH]c2c1` [CV-8686] gave a concentration for a half-maximal effect (EC50) in series [1] (Table 1) of 3.17 µM. Besides, the “viability of the tissues, dose response” value with MelanoDerm™ Skin Model is reported as “slightly lower viability”.

In the case of `CC(c1[nH]c2ccccc2c1C=O)c1c[nH]c2ccccc12` (stereo not drawn) [CV-8688], the cell morphology entry with WM115 cells [2] and in the series on MeWo cells [6] was “significantly affected” in each case. Besides, the “inhibition of cell viability” value in the series on WM115 cells [3] and in the series on MeWo cells [10] was “inhibited viability of both cell types in a dose-dependent manner” throughout. The “apoptosis induction (annexin V binding)” value in the series with WM115 cells [4] and with MeWo cells [5] was “showed the induction effect within 6 hours of treatment in a dose-dependent manner” in each case. For the same compound, in the series with MeWo cells [7] (preliminary screen), the “annexin V staining” value was “markedly increased annexin V staining”. Moreover, the EC50 in the series on MeWo cells [7] (Homo sapiens, MeWo, 10 doses starting from 100 μM, read-out: EC50 of annexin V staining) was 0.909 µM; in [1] (Table 1) it was 19.9 µM. Further, the LDH release entry in the series on WM115 cells [8] and in the series with MeWo cells [9] was “induced LDH release at the highest concentration tested” throughout.
